Experimental data taken from patent US12507703B2, “Methods, devices and compositions for preserving human milk” (The Trustees of Princeton University, priority 2023, dated 2025).
Values joined by “and” are separate entries in the source; they are usually repeats but may differ in a detail not shown here. Equal entries are not always repeated. Where two headings read alike, the source gives them in different places.

Tested on: lipase
Test: Lipase/lipolysis assay (EnzChek Lipase Substrate, quenched BODIPY-fatty acid conjugate) on stored human milk; also: test concentration or dose not given here

Compound	Lipase (RFU)	also measured
O=C(O)CCCC(=O)C(=O)O [Oxoadipic acid]	732.376 RFU	–
OC[C@H]1O[C@H](OC[C@H]2OC(O)(CO)[C@@H](O)[C@@H]2O)[C@H](O)[C@@H](O)[C@@H]1O (stereo partly drawn) [Palatinose]	803.211 RFU	–
O=c1c(O[C@@H]2O[C@H](CO)[C@H](O)[C@H](O)[C@H]2O[C@@H]2O[C@H](CO)[C@@H](O)[C@H](O)[C@H]2O)c(-c2ccc(O)cc2)oc2cc(O)cc(O)c12 [Panasenoside]	1093.409 RFU	–
C=C(C)[C@@H](O)COc1c2ccoc2cc2oc(=O)ccc12 [Pangelin]	581.7367 RFU	–
CCCCCCCC(=O)CCc1ccc(O)c(OC)c1 [Paradol]	1060.26 RFU and 1109.933 RFU	–
O=C1C=C2C(=CCOC2O)O1 (stereo not drawn) [Patulin]	1145.028 RFU	–
CCCCCC/C=C\CCCCCCCCCCCC(=O)O [Paullinic acid]	1192.519 RFU	–
CCCCC/C=C/C=C/C(=O)NCC(C)C [Pellitorine]	785.2318 RFU and 741.5651 RFU	–
COc1cc(O)c2c(c1)OC(c1ccc(OC)c(O)c1)CC2=O (stereo not drawn) [Persicogenin]	1028.526 RFU	–
CCCCCCCCCCC/C=C\CCCCC(=O)O [Petroselinic acid]	886.6723 RFU	–
COc1cc(-c2[o+]c3cc(O)cc(O)c3cc2O)cc(O)c1O.[Cl-] [Petunidin (chloride)]	1018.887 RFU	–
c1ccc2c(c1)Nc1ccccc1S2 [Phenothiazine]	725.1361 RFU	–
O=C(O)COc1ccccc1 [Phenoxyacetic acid]	872.4796 RFU and 824.9859 RFU	–
CN(CC(=O)O)C(=N)NP(=O)(O)O [Phosphocreatine]	915.1867 RFU	–
C[N+](C)(C)CCOP(=O)(O)O [Phosphoryl Choline]	931.0385 RFU	–
C[N+](C)(C)CCOP(=O)(O)O.[Cl-] [Phosphorylcholine (chloride)]	831.0181 RFU	–
C[N+](C)(C)CCOP(=O)(O)O [Phosphorylcholine]	1107.376 RFU	–
CC1=C(C/C=C(\C)CCC[C@H](C)CCC[C@H](C)CCCC(C)C)C(=O)c2ccccc2C1=O [Phylloquinone]	1038.691 RFU	–
O.O=P([O-])([O-])OC1C(OP(=O)([O-])[O-])C(OP(=O)([O-])[O-])C(OP(=O)([O-])[O-])C(OP(=O)([O-])[O-])C1OP(=O)([O-])[O-].[Na+].[Na+].[Na+].[Na+].[Na+].[Na+].[Na+].[Na+].[Na+].[Na+].[Na+].[Na+] (stereo not drawn) [Phytic acid (dodecasodium hydrate)]	1018.084 RFU and 920.5233 RFU	–
CC1=C(C=O)C(C)(C)C[C@H](O[C@@H]2O[C@H](CO)[C@@H](O)[C@H](O)[C@H]2O)C1 [Picrocrocin]	633.2514 RFU	–
COc1cc(O)c(C(=O)/C=C/c2ccccc2)c(O)c1 [Pinostrobin chalcone]	969.4657 RFU	–
C1CNCCN1.O=C(O)CC(O)(CC(=O)O)C(=O)O [Piperazine (citrate)]	986.285 RFU	–
CC(=O)CCc1ccc2c(c1)OCO2 [Piperonyl acetone]	718.0889 RFU	–
C=C(C[C@@H](O)[C@](C)(O)[C@H]1CC[C@@]2(O)C3=CC(=O)[C@@H]4C[C@@H](O)[C@@H](O)C[C@]4(C)[C@H]3CC[C@]12C)C(C)C [Polyporusterone B]	1175.382 RFU	–

Compound	Lipase (RFU)	also measured
NCc1[nH]cc(CCC(=O)O)c1CC(=O)O [Porphobilinogen]	1154.849 RFU	–
O=C([O-])[C@H](O)[C@@H](O)[C@H](O)[C@H](O)CO.[K+] [Potassium Gluconate]	966.4096 RFU and 888.9701 RFU	–
O=C([O-])O.[K+] [Potassium bicarbonate]	726.638 RFU	–
C/C=C/C=C/C(=O)[O-].[K+] [Potassium sorbate]	727.0693 RFU and 1055.671 RFU	–
Oc1cc(O)c2c(c1)OC1(c3ccc(O)c(O)c3)Oc3cc(O)c4c(c3C2C1O)OC(c1ccc(O)c(O)c1)C(O)C4 (stereo not drawn) [Procyanidin A1]	1206.886 RFU	–
Oc1cc(O)c2c(c1)O[C@H](c1ccc(O)c(O)c1)[C@H](O)[C@H]2c1c(O)cc(O)c2c1O[C@H](c1ccc(O)c(O)c1)[C@H](O)C2 [Procyanidin B2]	808.3168 RFU	–
CCCCC[C@H](O)/C=C/[C@H]1C(=O)C[C@H](O)[C@@H]1C/C=C\CCCC(=O)O [Prostaglandin D2]	071064.5 RFU	–
CCCCC[C@H](O)/C=C/[C@H]1[C@H](O)CC(=O)[C@@H]1CCCCCCC(=O)O [Prostaglandin E1]	787.5664 RFU	–
CCCCC[C@H](O)/C=C/[C@H]1[C@H](O)CC(=O)[C@@H]1C/C=C\CCCC(=O)O [Prostaglandin E2]	1264.564 RFU	–
O=C(O)c1ccc(O)c(O)c1 [Protocatechuic acid]	981.5941 RFU and 972.5566 RFU	–
COc1ccc(-c2oc3c(OC)c(O)cc(O)c3c(=O)c2O)cc1 [Prudomestin]	894.1495 RFU	–
COc1cc(O)c2c(=O)c(-c3ccc(O)cc3)coc2c1 [Prunetin]	865.5495 RFU	–
CC(C)=CCc1cc2c(cc1O)oc(=O)c1c3ccc(O)cc3oc21 [Psoralidin]	1084.87 RFU	–
CC(C)=C1CC[C@@H](C)CC1=O [Pulegone]	791.7693 RFU and 1146.187 RFU	–
Cc1ncc(CO)c(CO)c1O.Cl [Pyridoxine (hydrochloride)]	–	Lipase (RFU) ((hydrochloride)): 911.6428 RFU and 799.8007 RFU
O=C(O)c1cccc(O)c1O [Pyrocatechuic acid]	896.9439 RFU	–
O=P(O)(O)OP(=O)(O)O [Pyrophosphate]	1218.619 RFU and 873.0451 RFU	–
O=Cc1ccc[nH]1 [Pyrrole-2-carboxaldehyde]	882.4774 RFU	–
O=c1c(O)c(-c2ccc(O)c(O)c2)oc2cc(O)c(O)c(O)c12 [Quercetagetin]	891.7095 RFU	–
C[C@@H]1O[C@@H](O[C@H]2[C@H](Oc3c(-c4ccc(O)c(O)c4)oc4cc(O)cc(O)c4c3=O)O[C@H](CO)[C@@H](O)[C@@H]2O)[C@H](O)[C@H](O)[C@H]1O [Quercetin 3-O-neohesperidoside]	838.5308 RFU	–
O=c1c(O[C@@H]2O[C@H](CO[C@@H]3O[C@H](CO)[C@@H](O)[C@H](O)[C@H]3O)[C@@H](O)[C@H](O)[C@H]2O)c(-c2ccc(O)c(O)c2)oc2cc(O)cc(O)c12 [Quercetin 3-gentiobioside]	676.8795 RFU	–
O.O.O=c1c(O)c(-c2ccc(O)c(O)c2)oc2cc(O)cc(O)c12 [Quercetin (dihydrate)]	1081.937 RFU	–
O=c1c(O)c(-c2ccc(O)c(O)c2)oc2cc(O[C@@H]3O[C@H](CO)[C@@H](O)[C@H](O)[C@H]3O)cc(O)c12 [Quercimeritrin]	857.409 RFU	–
O=C(O)c1ccc2ccccc2n1 [Quinoline-2-carboxylic acid]	994.8984 RFU	–

Compound	Lipase (RFU)	also measured
CC(=O)CCc1ccc(O[C@@H]2O[C@H](CO)[C@@H](O)[C@H](O)[C@H]2O)cc1 [Raspberry ketone glucoside]	1167.769 RFU	–
O=CCCO [Reuterin]	1125.363 RFU	–
C[C@H](O)[C@H](O)[C@@H](O)[C@@H](O)C=O.O [Rhamnose (monohydrate)]	–	Lipase (RFU) ((monohydrate)): 978.8722 RFU and 922.0222 RFU
O=C(O)c1cc(O)c2c(c1)C(=O)c1cccc(O[C@@H]3O[C@H](CO)[C@@H](O)[C@H](O)[C@H]3O)c1C2=O [Rhein 8-Glucoside]	942.9082 RFU	–
C=C(C)[C@H]1Cc2c(ccc3c2O[C@@H]2COc4cc(OC)c(OC)cc4[C@@H]2C3=O)O1 [Rotenone]	542.204 RFU	–
CC(C)(O)[C@@H]1Cc2cc3ccc(=O)oc3cc2O1 [S-(+)-Marmesin]	984.7966 RFU	–
Nc1ncnc2c1ncn2[C@@H]1O[C@H](CSCC[C@H](N)C(=O)O)[C@@H](O)[C@H]1O [SAH]	641.7279 RFU	–
CC1=C(C=O)C(C)(C)CC=C1 [Safranal]	1026.753 RFU and 1118.736 RFU	–
CC1=C2[C@H]3OC(=O)[C@@H](C)[C@@H]3CC[C@@]2(C)C=CC1=O [Santonin]	895.7689 RFU	–
CC1(C)CCC[C@]2(C)[C@H]3CC(=O)O[C@]3(C)CC[C@@H]12 [Sclareolide]	845.6458 RFU	–
C[Se]C[C@H](N)C(=O)O [Se-Methylselenocysteine]	889.6084 RFU	–
CCC(C)N (stereo not drawn) [Sec-Butylamine]	784.9928 RFU	–
COc1cc(C[C@@H](CO)[C@H](CO)Cc2ccc(O)c(OC)c2)ccc1O [Secoisolariciresinol]	1112.005 RFU	–
OC[C@@]12OC[C@@H](O1)[C@@H](O)[C@@H](O)[C@@H]2O [Sedoheptulosan]	1068.783 RFU	–
O=C(O)c1cc(O)c2c(c1)[C@H]([C@H]1c3cc(C(=O)O)cc(O)c3C(=O)c3c(O[C@@H]4O[C@H](CO)[C@@H](O)[C@H](O)[C@H]4O)cccc31)c1cccc(O[C@@H]3O[C@H](CO)[C@@H](O)[C@H](O)[C@H]3O)c1C2=O [Sennoside A]	1002.323 RFU	–
Oc1ccc2c(c1)OCO2 [Sesamol]	995.7089 RFU	–
COc1cc([C@@H]2Oc3c(O)cc([C@H]4Oc5cc(O)cc(O)c5C(=O)[C@@H]4O)cc3[C@H]2CO)ccc1O [Silychristin]	921.666 RFU	–
COc1cc(/C=C/C(=O)OCC[N+](C)(C)C)cc(OC)c1O.N#C[S-] [Sinapine (thiocyanate)]	1052.349 RFU	–
COc1cc(/C=C/C(=O)OCC[N+](C)(C)C)cc(OC)c1O [Sinapine]	1084.597 RFU	–
C=CC/C(=N/OS(=O)(=O)[O-])S[C@@H]1OC(CO)[C@@H](O)C(O)C1O.[K+] (stereo partly drawn) [Sinigrin]	1002.884 RFU	–
Cc1c[nH]c2ccccc12 [Skatole]	735.1893 RFU and 599.6554 RFU	–
O=c1ccc2ccc(O[C@@H]3O[C@H](CO)[C@@H](O)[C@H](O)[C@H]3O)cc2o1 [Skimmin]	1029.943 RFU	–
C[C@@H]1CC[C@@]2(OC1)O[C@H]1C[C@H]3[C@@H]4CC[C@@H]5C[C@@H](O)CC[C@]5(C)[C@H]4CC[C@]3(C)[C@H]1[C@@H]2C [Smilagenin]	790.1194 RFU	–
CC(C)(O[C@@H]1O[C@H](CO)[C@@H](O)[C@H](O)[C@H]1O)[C@H]1Oc2cc3oc(=O)ccc3cc2[C@H]1O [Smyrindioloside]	1066.572 RFU	–
